Measured values reported in article PMC4578436, “Synthesis and evaluation of the biostability and cell compatibility of novel conjugates of nucleobase, peptidic epitope, and saccharide” (Beilstein Journal of Organic Chemistry, 2015).
Where a SMILES comes first, the peptide text is derived from it. The star is where a group is joined. Adenin9ylacetyl = Nc1ncnc2c1ncn2CC(=O)*

What was measured:
[1] = biological target: T1, proteinase K (Parengyodontium album, UniProt P06873); details: peptide sequence alone; cited from earlier work
T1 construct: purchased Sigma
T1 sequence (P06873 106-384): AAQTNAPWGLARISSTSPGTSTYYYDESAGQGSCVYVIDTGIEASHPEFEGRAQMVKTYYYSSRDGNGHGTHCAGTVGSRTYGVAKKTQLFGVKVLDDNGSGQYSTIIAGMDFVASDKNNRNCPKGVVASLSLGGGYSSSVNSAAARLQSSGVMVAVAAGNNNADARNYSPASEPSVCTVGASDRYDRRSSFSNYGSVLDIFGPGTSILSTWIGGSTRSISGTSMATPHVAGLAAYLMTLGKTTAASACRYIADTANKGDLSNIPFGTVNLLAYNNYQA
Excerpt: This article reports the synthesis of a new class of conjugates containing a nucleobase, a peptidic epitope, and a saccharide and the evalution of their gelation, biostability, and cell compatibility. […] All the conjugates themselves (1–8) display excellent solubility in water without forming hydrogels. However, a mixture of 5 and 8 self-assembles to form nanofibers and results in a supramolecular hydrogel. The pr ...

[2] = biological target: T1, proteinase K; test: biostability: incubation with proteinase K; format: in vitro ADME; details: 24 h, 37 °C
Description: The existence of proteolytic enzymes in organism limits the applications of peptide-based biomaterials in vivo. […] When we changed the peptide sequence to EPTV, only 15% of 3 left.
Figure 3 Compounds remained after incubating with proteinase K (3.2 U/mL) for 24 h at 37 °C. (A) Each conjugate 1–8 is at the concentration of 0.2 mg/mL in HEPES buffer (pH 7.4). (B) Mixture of 1 + 8, 5 + 8, or 7 + 8 is in PBS buffer ([1] = [5] = [8] = 8.3 mM, pH 6.2). TEXT PRINTED IN THE PICTURE: (A) 4: Comp. remained %: Un-detectable | (A) 8: Comp. remained %: Un-detectable | (B) 8: Comp. remained %: Un-detectable (Mixtures: 7+8)
Starting materials and reagents were purchased from GL Biochem (Shanghai) Ltd. and Fisher Scientific without further purification unless otherwise noted. Proteinase K was purchased from Sigma (>800 unit/mL). The HeLa cell line (CCL-2) and the PC12 (CRL-1721.1) cell line were purchased from the American Type Culture Collection. All of the media were purchased from Invitrogen.

Row | Molecule | proteolytic stability of the peptidic epitope itself [1] | 8 remained after incubating the mixture 1 + 8 with proteinase K ([2]; mixture 1 + 8, each 8.3 mM in PBS buffer pH 6.2, proteinase K 3.2 U/mL) | 8 remained after incubating the mixture 5 + 8 (hydrogel) with proteinase K ([2]; mixture 5 + 8, each 8.3 mM in PBS buffer pH 6.2, proteinase K 3.2 U/mL) | 8 remained after incubating the mixture 7 + 8 with proteinase K ([2]; mixture 7 + 8 in PBS buffer pH 6.2, same condition as 5 + 8, proteinase K 3.2 U/mL)
1 | TTPV | proteolytic resistant |  |  | 
2 | LGFNI | susceptible to proteolysis |  |  | 
3 | CC[C@H](C)[C@H](NC(=O)[C@H](CC(N)=O)NC(=O)[C@H](Cc1ccccc1)NC(=O)CNC(=O)[C@H](CC(C)C)NC(=O)Cn1cnc2c(N)ncnc21)C(=O)O [compound 8] (Adenin9ylacetyl-LGFNI-OH) |  | about 3% | about 50% | Un-detectable
